Test results as given in patent US20180344715A1, “WNT/BETA-CATENIN SIGNAL TRANSDUCTION INHIBITORS AND THEIR USE IN TREATMENT OR PREVENTION OF DISEASES AND CONDITIONS LINKED WITH SAID TRANSDUCTION” (BERGEN TEKNOLOGIOVERFORING AS, priority 2015, published 2018).

Legend:
[1] = system: RKO cells; experiment: EdU label release assay, RKO; format: cell-based; conditions: 5 μM, 3 days
Description: Two days later, cells were seeded singly onto 12 mm glass coverslips in 24-well plates. One day after, EdU was detected using the Click-iT® Plus EdU Alexa Fluor 488 Imaging Kit (Life Technologies, C10637) according to the manufacturer's protocol. For double staining of EdU and other proteins, the EdU stained cells were further used for immunofluorescence staining as described above. Intensity of EdU staining in paired cells were quantified by Photoshop CS6 software, unequal EdU distribution was considered when paired cells had intensity ratio higher than 2.

[2] = target: T1, MED23 (Homo sapiens, UniProt Q9ULK4); experiment: Cellular thermal shift assay (CETSA), MED23; format: binding; conditions: SW480, 10 μM
T1 construct: endogenous in cells; host or cells: SW480
T1 sequence (Q9ULK4 1-1368): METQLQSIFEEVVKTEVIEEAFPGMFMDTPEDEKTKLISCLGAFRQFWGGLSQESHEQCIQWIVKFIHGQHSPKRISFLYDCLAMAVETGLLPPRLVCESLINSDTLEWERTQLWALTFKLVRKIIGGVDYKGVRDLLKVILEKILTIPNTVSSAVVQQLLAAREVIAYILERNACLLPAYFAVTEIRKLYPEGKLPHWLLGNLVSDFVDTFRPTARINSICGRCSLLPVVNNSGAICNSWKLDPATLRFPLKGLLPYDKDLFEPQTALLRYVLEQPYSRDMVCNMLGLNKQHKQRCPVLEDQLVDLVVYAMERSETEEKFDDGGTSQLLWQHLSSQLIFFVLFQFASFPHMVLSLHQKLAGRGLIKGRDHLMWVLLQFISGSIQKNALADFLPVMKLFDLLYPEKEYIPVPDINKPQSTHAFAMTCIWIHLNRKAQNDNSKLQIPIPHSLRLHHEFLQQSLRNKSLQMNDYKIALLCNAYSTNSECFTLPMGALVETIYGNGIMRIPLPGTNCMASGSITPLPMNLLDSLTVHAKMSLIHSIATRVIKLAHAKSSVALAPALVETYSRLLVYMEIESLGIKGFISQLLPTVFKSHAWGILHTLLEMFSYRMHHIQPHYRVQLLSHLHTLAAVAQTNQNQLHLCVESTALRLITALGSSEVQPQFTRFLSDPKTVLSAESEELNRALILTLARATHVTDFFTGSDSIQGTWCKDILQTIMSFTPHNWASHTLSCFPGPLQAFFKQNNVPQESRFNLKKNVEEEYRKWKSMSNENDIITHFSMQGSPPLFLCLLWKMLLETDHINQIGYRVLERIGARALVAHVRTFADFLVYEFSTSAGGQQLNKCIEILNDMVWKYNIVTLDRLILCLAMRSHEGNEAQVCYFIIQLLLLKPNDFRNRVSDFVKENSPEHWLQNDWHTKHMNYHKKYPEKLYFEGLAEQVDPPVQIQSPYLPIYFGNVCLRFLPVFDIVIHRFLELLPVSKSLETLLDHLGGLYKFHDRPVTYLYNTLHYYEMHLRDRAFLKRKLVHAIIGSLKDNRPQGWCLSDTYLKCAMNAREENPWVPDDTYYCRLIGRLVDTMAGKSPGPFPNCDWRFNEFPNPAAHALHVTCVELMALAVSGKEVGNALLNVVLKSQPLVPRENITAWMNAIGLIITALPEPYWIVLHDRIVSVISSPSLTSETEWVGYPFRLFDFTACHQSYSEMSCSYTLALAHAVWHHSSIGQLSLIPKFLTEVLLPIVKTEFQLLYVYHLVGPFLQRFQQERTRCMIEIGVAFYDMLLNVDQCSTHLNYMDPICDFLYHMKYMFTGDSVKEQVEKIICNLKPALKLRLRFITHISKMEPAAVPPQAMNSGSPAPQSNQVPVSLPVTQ
Description: CETSA in intact cells was performed according to the protocol previously described (Martinez Molina, D. et al., 2013, Science 341, 84-87). Briefly, SW480 cells were seeded equally in 2 T75 flasks and allowed to reach 80% confluence one day after. […] After trypsinization and PBS wash, cells were resuspended in 450 μl PBS containing freshly added protease inhibitors and equally divided between 7 tubes. Cells in each tube were heated at indicated temperatures for 3 minutes and kept at room temperature for 3 minutes. Heated cells were lysed by 3 cycles of freezing in liquid nitrogen (1 minute) and thawing in room temperature water (1 minute). The cell lysates were centrifuged at 20,000 g for 20 minutes at 4° C. The soluble fractions were isolated for Western blotting analysis.

[3] = target: T1, MED23; experiment: Chromatin immunoprecipitation (ChIP) of MED23 at Wnt target genes; format: cell-based; conditions: SW480, 5 μM overnight
Description: ChIP was performed according to the protocol previously described with a few modifications on the crosslinking procedures (Ke, X. S. et al., 2009, PLoS One 4, e4687). […] The reaction was quenched with 1/50 volume of 2.5 M glycine. Cells were lysed and the nuclei were sonicated to fragments ranging from 200 bp to 500 bp. After saving 0.2% total chromatin for input DNA purification, sonicated lysates were equally divided to three tubes and immunoprecipitated with Protein G beads (Life technologies, 10004D) coupled with 5 μg mouse IgG (15381, Sigma), antibody against MED23(BD550429, clone D27-1805, BD Biosciences) and β-catenin (ab22656, clone 12F7, Abcam), respectively. The immunoprecipitated DNA was purified and examined by PCR described below.
To determine the purified DNA from ChIP samples, quantitative PCR was performed with RT^2 SYBR Green/ROX PCR Master Mix and the PCR reactions were examined by 2% agarose gel electrophoresis. PCR primers were designed to cover the canonical TCF/β-catenin binding motifs of 6 randomly chosen β-catenin target genes (shown in FIG. 4c). The sequences and genomic locations (NCBI36/hg18) of PCR primers are listed below. GAPDH was used as a negative control.

[4] = target: T2, MED23 and β-catenin (Homo sapiens, UniProt Q9ULK4); experiment: Co-immunoprecipitation of MED23 and β-catenin; format: cell-based; conditions: SW480, 5 μM, 4 hours
T2 construct: endogenous in cells; host or cells: SW480
T2 sequence (Q9ULK4 1-1368): T1 sequence (Q9ULK4 1-1368)
Description: Co-IP was done following the protocol of Dynabeads Co-Immunoprecipitation Kit (Life Technologies, 14321D). […] After saving 2% samples for input control, cell lysates were equally divided between 3 tubes, incubated with 3 mg Dynabeads and 21 μg mouse IgG (15381, Sigma), primary antibody against MED23 (BD550429, clone D27-1805, BD Biosciences) and β-catenin (ab22656, clone 12F7, Abcam), respectively. Input controls and proteins pulled down with individual antibodies were examined by Western blotting.

`CNC(=O)c1ccccc1Sc1ccc2c(/C=C/c3ccccn3)n[nH]c2c1` [axitinib, N-Methyl-2-[[3-[(E)-2-pyridin-2-ylethenyl]-1H-indazol-6-yl]sulfanyl]benzamide] was tested. Which “EdU ACD” value [1] did it give?
The value was “pre-treatment with 6B10 was required for EdU ACD induction”.

What about the “direct binding in intact living cells” value [2] of the same compound?
The value was “confirmed”.

And the “MED23 occupancy at TCF/LEF-binding motifs of Wnt target genes” value [3]?
Its value is “reduced”.

And the “endogenous association of MED23 and β-catenin” value [4]?
Its value is “disrupted”.
